Results on eleven sequences are retold here after patent US10526388B2, “Peptide derived from GPC3, pharmaceutical composition for treatment or prevention of cancer using the same, immunity inducer, and method for producing antigen-presenting cells” (CYTLIMIC INC., priority 2015, dated 2020).

The term Kd denotes the free concentration of one partner at which half of the binding sites on the other are occupied at equilibrium, for simple one-to-one binding. Read a high Kd as a looser complex.

Ends that are not written are not given here.

The target of the first assay is T1, HLA-A*02:06 molecule (Homo sapiens, UniProt P04439, D140Y/D185E/D98H/E176V/E277Q/F33Y/G131W/G231S/I119V/I121R/I166T/I218V/L300P/L318F/N151K/N90K/P208A/P217A/Q86G/Q94H/R138H/R169H/T345S).
T1 construct: expressed in transfected cells; host or cells: RA2.6 cells (RMAS mouse TAP-deficient line carrying HLA-A*02:06 cDNA; prepared at Kochi University)
Nature of the assay: Binding experiment of peptide to HLA-A*02:06 molecule (RA2.6 cells, antibody BB7.2, flow cytometer).
Conditions: not given
The method, then:
The binding capacity of each peptide to the HLA-A*02:06 molecule as the product of HLA-A*02:06 gene was measured using RA2.6 cells (a cell line newly prepared at Kochi University) in which cDNA of the HLA-A*02:06 gene was introduced into RMAS as a mouse TAP (transporter associated with antigen processing)-deficient cell line.
First, the RA2.6 cells were cultured overnight at 26° C. to accumulate the HLA-A*02:06 molecules unbound to the peptide on the cell surface. Any of peptide dilution series was added thereto for binding at 26° C. for 60 minutes.
Subsequently, the mixture was cultured at 35° C. for 4 hours, resulting in the denaturation of the empty HLA-A*02:06 molecule unbound to the peptide and the loss of its steric structure. A fluorescent labeled monoclonal antibody, BB7.2, specifically recognizing a peptide-bound HLA-A*02:06 molecule, was added thereto, which was then incubated on ice for 20 minutes to stain the cells.
(§1) Thereafter, the amount of fluorescence per cell was measured using a flow cytometer, and the dissociation constant, Kd value, was calculated using a method as published in a paper by the present inventor (Udaka et al., Immunogenetics, 51, 816-828, 2000).
On the technique in general: In flow cytometry, cells or beads pass a laser one at a time.
For ALNLGIEVI [SEQ ID NO: 7, ALNLGIEVI], the “binding to HLA-A*02:06 molecule (in words)” value is “strongly binds”.

Still in this assay, the particulars now being: RA2.6 cells, 26° C. 60 minutes then 35° C. 4 hours; negative figures given (log of Kd value).
ALNLGIEVI [SEQ ID NO: 7, ALNLGIEVI] had a Kd of 69 µM.
On the same count and under the same terms, next, ARLNMEQLL [SEQ ID NO: 11, ARLNMEQLL]: 1720 µM; GMIKVKNQL [SEQ ID NO: 10, GMIKVKNQL]: 439 µM.
Sequence GYICSHSPV [SEQ ID NO: 6, GYICSHSPV] yielded a Kd of over 1000 µM.
On the same count and under the same terms, next, KLTTTIGKL [SEQ ID NO: 9, KLTTTIGKL]: 9.25 µM; LFDSLFPVI [SEQ ID NO: 2, LFDSLFPVI]: over 1000 µM.
Same read-out and setting: next, LLQSASMEL [SEQ ID NO: 8, LLQSASMEL]: 1.33 µM.
MVNELFDSL [SEQ ID NO: 1, MVNELFDSL] had a dissociation constant Kd of 0.724 µM.
On the same count and under the same terms, then SALDINECL [SEQ ID NO: 3, SALDINECL], with 0.483 µM.
SLQVTRIFL [SEQ ID NO: 4, SLQVTRIFL]: the Kd was 6.11 µM.
The sequence SLTPQAFEF [SEQ ID NO: 5, SLTPQAFEF] showed a Kd of 30.5 µM.

In another assay the target is HLA-A*02:01 molecule (Homo sapiens, UniProt P04439, D140Y/D185E/D98H/E176V/E277Q/G131W/G231S/I119V/I121R/I166T/I218V/L300P/L318F/N151K/N90K/P208A/P217A/Q86G/Q94H/R138H/R169H/T345S). Nature of the assay: Binding experiment of peptide to HLA-A*02:01 molecule (T2 cells, antibody BB7.2, flow cytometer).
Conditions: not given
The procedure:
The binding capacity of each peptide to the HLA-A*02:01 molecule as the product of HLA-A*02:01 gene was measured using a cell line, T2, (purchased from ATCC) expressing the HLA-A*02:01 molecule.
T2 cells and purified β2m were added to stepwise dilution series of a peptide whose binding capacity was to be measured, which was then incubated at 37° C. for 4 hours.
as §1
Regarding ALNLGIEVI [SEQ ID NO: 7, ALNLGIEVI], the “binding to HLA-A*02:01 molecule (in words)” value was “strongly binds”.

The assay is the same for the next values; noted with them: T2 cells, 37° C. 4 hours; negative figures given (log of Kd value).
Consider ALNLGIEVI [SEQ ID NO: 7, ALNLGIEVI], for which the Kd was 1.21 µM.
On to ARLNMEQLL [SEQ ID NO: 11, ARLNMEQLL], for which the Kd is 144 µM.
Consider GMIKVKNQL [SEQ ID NO: 10, GMIKVKNQL], for which binding was characterised by a dissociation constant (Kd) of 17.5 µM.
Turning to GYICSHSPV [SEQ ID NO: 6, GYICSHSPV], the Kd is over 1000 µM.
On the same count and under the same terms, next, KLTTTIGKL [SEQ ID NO: 9, KLTTTIGKL]: 10.7 µM.
The same measure, in the same setting: next, LFDSLFPVI [SEQ ID NO: 2, LFDSLFPVI]: 8.61 µM.
Same read-out and setting: next, LLQSASMEL [SEQ ID NO: 8, LLQSASMEL]: 0.73 µM; MVNELFDSL [SEQ ID NO: 1, MVNELFDSL]: 4.94 µM.
Sequence SALDINECL [SEQ ID NO: 3, SALDINECL] showed a Kd of over 1000 µM.
Sequence SLQVTRIFL [SEQ ID NO: 4, SLQVTRIFL] registered a Kd of 0.616 µM.
On the same count and under the same terms, next, SLTPQAFEF [SEQ ID NO: 5, SLTPQAFEF]: 11.9 µM.

A further assay has as its target HLA-A*24:02 molecule (Homo sapiens, UniProt P04439, D101N/D140Y/D185E/E176V/E190D/F33S/G103R/G107R/I119L/I121M/I306V/K335N/L105A/L180Q/L300P/N151K/N90K/Q86E/Q94H/R106L/R138H/R89G/T104I/T345S/V100E/W191G/Y123F). Nature of the assay: Binding experiment of peptide to HLA-A*24:02 molecule (C1R-A24 cells, antibody 17A12, FACScan).
Conditions: not given
The procedure: The binding capacity of each peptide to the HLA-A*24:02 molecule as the product of HLA-A*24:02 gene was measured using C1R-A24 cells expressing the HLA-A*24:02 molecule (the cells prepared by Prof. Masafumi Takeguchi, Kumamoto University were gifted by Assoc. Prof. Masaki Yasukawa, Ehime University with permission).
First, C1R-A24 cells were exposed to acidic conditions of pH 3.3 for 30 seconds to dissociate and remove endogenous peptides which were originally bound to the HLA-A*24:02 molecule and a light chain, […], which was commonly associated with HLA class I molecules. After neutralization, purified β2m was added to the C1R-A24 cells, which was then added to peptide dilution series. The mixtures were each then incubated on ice for 4 hours. The 3-molecule assembly (MHC-pep) consisting of the HLA-A*24:02 molecule, the peptide, and β2 m which had been reasociated during the incubation was stained with a fluorescent labeled monoclonal antibody, 17A12, recognizing the assembly.
Subsequently, the number of MHC-pep's per C1R-A24 cell (which is proportional to the fluorescent intensity of the above fluorescent antibody) was quantitatively measured using a fluorescent cell analyzer, FACScan (Becton, Dickinson and Company). The binding dissociation constant, Kd value, between the HLA-A*24:02 molecule and the peptide was calculated from the average fluorescent intensity per cell using a method as published in a paper (Udaka et al., Immunogenetics, 51, 816-828, 2000) by the present inventor.
As for ALNLGIEVI [SEQ ID NO: 7, ALNLGIEVI], the “binding to HLA-A*24:02 molecule (in words)” value is recorded as “strongly binds”.

Still in this assay, the particulars now being: C1R-A24 cells, on ice 4 hours; negative figures given (log of Kd value).
For the sequence ALNLGIEVI [SEQ ID NO: 7, ALNLGIEVI], the Kd was 111 µM.
Sequence ARLNMEQLL [SEQ ID NO: 11, ARLNMEQLL] showed a Kd of 6.26 µM.
Same read-out and setting: next, GMIKVKNQL [SEQ ID NO: 10, GMIKVKNQL]: 0.125 µM; GYICSHSPV [SEQ ID NO: 6, GYICSHSPV]: 0.283 µM; KLTTTIGKL [SEQ ID NO: 9, KLTTTIGKL]: 6.14 µM.
On the same count and under the same terms, then LFDSLFPVI [SEQ ID NO: 2, LFDSLFPVI], with 0.0374 µM; and LLQSASMEL [SEQ ID NO: 8, LLQSASMEL], with 3.25 µM.
In turn, MVNELFDSL [SEQ ID NO: 1, MVNELFDSL] gave a Kd of 20 µM.
Still for that read-out and setting: then SALDINECL [SEQ ID NO: 3, SALDINECL], with over 1000 µM; and SLQVTRIFL [SEQ ID NO: 4, SLQVTRIFL], with 4.61 µM.
The same measure, in the same setting: then SLTPQAFEF [SEQ ID NO: 5, SLTPQAFEF], with 0.077 µM.

For the next assay, the system named is CD8T cells. Nature of the assay: Immunity induction test of peptide (peptide-stimulated dendritic cells cocultured with CD8T cells, IFN-γ ELISPOT / ELISA). Format: cell-based, human.
Conditions: not given
The method, then:
(1) Preparation of Peptide-stimulated Dendritic Cell
Of peripheral blood monocytes obtained by pheresis from the patient treated with HSP70 dendritic cell therapy, a cell fraction adhering to the culture flask was cultured in AIM-CM medium (trade name “Gibco” from Thermo Fisher Scientific Co., Ltd.) at 37° C. for 10 days. During culture, 15 μl of IL-4 and 30 μl of granulocyte-monocyte colony-stimulating factor (GM-CSF) were added to the medium at day 0 and day 3, and 15 μl of IL-4, 30 μl of GM-CSF, and 75 μl of tumor necrosis factor (TNF)-α were added at day 5.
The dendritic cells induced were newly recovered into AIM-CM medium, and the peptides of the present invention (SEQ ID NOS: 1 to 11) were each added to 20 μg/ml. […]
The dendritic cells were recovered, washed 3 times or more with a sufficient amount of AIM-CM medium, and counted. […]
Using CD8 Negative Selection Kit (from Miltenyi Biotec), CD8T cells were separated from the medium and counted. […]
A culture supernatant at day 7 after coculture of T cells with dendritic cells pulsed with each of the above peptides was diluted to the 4 levels of ×1, ×5, ×25, and ×125 to identify the dilution level falling within the limit of measurement using Human IFN-γ ELISA MAX Deluxe Set (from BioLegend Inc.). Thereafter, each sample was measured 3 times at the identified dilution level. […]
A general note: In an ELISA, binding on a coated surface is turned into a signal by an enzyme label.
For ALNLGIEVI [SEQ ID NO: 7, ALNLGIEVI], the “immunogenicity (in words)” value is given as “high immunogenicity”.
